Reference: patent US10087215B2, “Stabilized SOS1 peptides” (DANA-FARBER CANCER INSTITUTE, INC., priority 2013, dated 2018)
Bridges are numbered along the chain shown (N, C = ends). Where no end group is shown, it is not given here. [ ]: non-standard residue; d: D form. The star is where a group is joined. guanine PNA monomer = guanine peptide-nucleic acid (PNA) monomer, attached to a lysine side chain, NCCN(CC(=O)*)C(=O)Cn1cnc2c(=O)[nH]c(N)nc21; G‑GMONO = glycine-G PNA monomer on lysine; S5 = C=CCCC[C@](C)(N)C(=O)O

What was measured:
Panc 10.05 cells = conditions: confocal microscopy and lysate fluorescence scan
Protocol: Microscopy was performed 4 hours after dosing cells with the corresponding FITC-conjugated peptides. Complimentary assays to evaluate cell penetrance, including confocal microscopy of treated pancreatic cancer cell lines such as Panc 10.05 (FIG. 12B) and fluorescence scan of lysates from SAH-SOS peptide-treated Panc 10.05 cells (FIG. 12C), were also employed.

KRAS wild type [1] = target: T1, KRAS wild type (Homo sapiens, UniProt P01116); assay: Fluorescence polarization binding assay, wild-type KRAS
Protocol: The affinity of the various peptides is detailed in FIG. 5.
Expression was induced by 1 mM IPTG for 4 hours at 30° C. Collected bacterial pellets were resuspended in lysis buffer (20 mM Tris, 250 mM NaCl, pH 7.6), lysed by microfluidization (Microfluidics M-110L), and centrifuged at 45,000 rpm for 1 h at 4° C. (Beckman L-90K). […] Concentrated eluates were subjected to size exclusion chromatography and the corresponding monomeric peaks were collected. Protein concentration was determined by Bradford assay (BioRad) and UV absorbance measurements.
FP assays were performed as previously described. Briefly, FITC-SAH-SOS peptides (e.g. 15 nM) were incubated with the indicated serial dilution of KRAS wild-type or mutant protein in binding buffer (50 mM Tris, 100 mM NaCl, pH 8.0) until equilibrium was reached. FP was measured using a SpectraMax M5 microplate reader (Molecular Devices). Dissociation constants (KD) were calculated by nonlinear regression analysis of dose-response curves using Prism software (GraphPad). Competition FP assays were performed by using K-RAS proteins (e.g. 250 nM), FITC-SAH-SOS peptides (e.g. 15 nM), and for competition assays, a serial dilution of N-terminal acetylated SAH-SOS peptides.

KRAS G12D = KRAS G12D (Homo sapiens, UniProt P01116, G12D); assay: mant-GTP loading of KRAS, G12D; assay type: biochemical; conditions: for inhibition of mant-GTP loading: KRAS G12D oncogenic variant; for inhibition of nucleotide (mant-GTP) loading of KRAS: KRAS G12D per FIG. 20 legend
Source text: (§1) The negative control SAH-SOS B2 peptide had no effect (FIG. 11A-D).
Fluorescent GTP analog, mant-GTP, was used to assess the GTP loading propensity of KRAS protein.

KRAS and SOS1 protein = KRAS and SOS1 protein (Homo sapiens, UniProt P01116); assay: Disruption of the association between KRAS and SOS1 protein in vitro; assay type: biochemical
KRAS wild type [2] = target: T1, KRAS wild type; assay: mant-GTP loading of KRAS, wild type; assay type: biochemical
Source text: as §1

wildtype KRAS = wildtype KRAS (Homo sapiens, UniProt P01116); assay: Nucleotide (GTP) exchange assay with mant-GTP; assay type: biochemical; conditions: mant-GTP loaded KRAS, excess unlabeled GTP (10x)
Protocol: KRAS was loaded with equimolar mant-GTP (a fluorescent GTP analog), and excess unlabeled GTP (10×) is then added to the reaction mixture. The observed decrease in fluorescence reflects the GTP turnover activity at the KRAS active site. SAH-SOS peptides reduce the GTP turnover activity, as reflected by a shift of the curves from the no peptide negative control toward the inhibited exchange (2 mM MgCl2) positive control (FIG. 10).
Nucleotide exchange assays were performed as an association-dissociation experiment in which mant-GTP first associates with K-Ras followed by a dissociation step in which excess unlabeled GTP outcompetes mant-GTP, thus decreasing the fluorescence, as previously described^5. A kinetic readout of fluorescence, corresponding to the dissociation step, was recorded on a Tecan X1000 fluorescence spectrometer (excitation 360 nm, emission 440 nm). The rate of nucleotide exchange was determined by fitting a single exponential function to the dissociation phase readout from the experiment (Prism software, GraphPad). Reactions were performed with the indicated amounts of SAH-SOS peptides in buffer containing 25 mM Tris (pH 7.5), 50 mM NaCl, 1 mM DTT with 2 μM wildtype KRAS, 2 μM mantGTP and 200 μM unlabeled GTP. 2 mM MgCl2 was added as a […] to inhibit mantGTP release.

[3] = test system: Myc promoter luciferase reporter in HeLa cells; assay: Myc promoter luciferase reporter assay; assay type: cell-based; conditions: EGF stimulation, normalized to cell viability
Protocol: HeLa cells transfected with a reporter construct containing luciferase under the control of the Myc promoter was treated with EGF and the indicated concentrations of SAH-SOS peptides (FIG. 16). The luciferase readout was normalized to cell viability and plotted as percent luciferase expression compared to baseline. […] No EGF treatment served as a negative control for the experiment.
HeLa cells (10^4/well) were plated overnight (96-well format) in high-glucose DMEM media supplemented with 10% FBS, antibiotics and L-Glutamine. After 24 hour incubation, cells were transfected with pBV-Luc/Del-6 plasmid that includes a luciferase reporter under c-myc promoter, using Lipofectamine 2000 (Invitrogen) according to the manufacturer's protocol. Twenty-four hours after transfection, the cells were treated with the indicated amounts of SAH-SOS peptides for 4 hours in serum-free media, and then. EGF (50 ng/ml) was added for an additional 4 hour incubation. CellTiter-Glo and luciferase (Invitrogen) kits were used to quantify cell viability and luciferase expression, respectively. Viability data was used to normalize luciferase expression.

[4] = test system: HCT116 (colorectal cancer, KRAS G13D); assay: Cell viability, CellTiter-Glo, HCT116; assay type: cell-based; conditions: HCT116, 24 hours
Protocol: SAH-SOSB2, which contains a staple position that interferes with the KRAS binding interface, served as a negative control for this experiment. Dose-dependent cytotoxic activity of guanine peptide-nucleic acid derivatives of SAH-SOSC2 was also observed in a series of pancreatic and lung cancer subtypes (FIG. 22).
(§2) The indicated cell lines (10^4/well) were plated overnight (96-well format) in high-glucose DMEM media supplemented with 10% FBS, antibiotics and L-Glutamine. Media was aspirated, and SAH-SOS peptides added at the indicated concentrations in serum-free DMEM. Cell viability was measured at 24 hours using the CellTiter-Glo assay (Invitrogen). The plotted data represent percent viability as normalized to untreated controls.

[5] = test system: phospho-MEK1/2, phospho-ERK1/2, phospho-Akt, phospho-S6K, and phospho-myc in HeLa or Panc 10.05 cells; assay: Phospho-western blotting of downstream KRAS targets after EGF; assay type: cell-based; conditions: 4 h peptide incubation, then Epidermal Growth Factor (EGF)
Protocol: (§3) We tested a diversity of cancer cells lines to evaluate their susceptibility to SAH-SOS peptide treatments. […] After 4 h incubation with the indicated peptides, HeLa (FIG. 15A) or Panc 10.05 (FIG. 15B) cells were treated with […] (EGF), an upstream KRAS activator, and, lysates were prepared, subjected to electrophoresis, and western blotted with the indicated phospho-specific antibodies. Cells treated with or without EGF, in the absence of added peptide, served as positive and negative controls, respectively.
HeLa cells (10^5/well) were plated overnight (12-well format) in high-glucose DMEM media supplemented with 10% FBS, antibiotics and L-Glutamine. After 24 hours, cells were treated with the indicated amounts of SAH-SOS peptides for 4 hours in serum-free DMEM, followed by the addition of EGF (50 ng/ml) ([…], Cell Signaling) for an additional 15 minute incubation. The cells were then lysed in buffer containing 0.5% NP-40, 50 mM Tris (pH 7.4), 150 mM NaCl, complete protease inhibitors and PhosphoOne phosphatase inhibitors (Roche), and collected lysates subjected to SDS-PAGE following by western blotting with anti-phospho-Erk1/2, phospho-S6K, phospho-myc (Cell Signaling), and actin (Sigma) antibodies.

[6] = test system: HeLa (cervical cancer, WT KRAS); assay: Cell viability, CellTiter-Glo, HeLa; assay type: cell-based; conditions: 24 hours
Protocol: as §2

[7] = test system: A549 (lung adenocarcinoma, KRAS G12S); assay: Cell viability, CellTiter-Glo, A549; assay type: cell-based; conditions: A549, 24 hours
Protocol: as §2

[8] = test system: lung, pancreatic, colon, and cervical cancer cell lines; assay: Susceptibility of a diversity of cancer cell lines; assay type: cell-based
Protocol: as §3, §2

[9] = test system: mouse embryonic fibroblasts; conditions: 0.5 μM FITC-conjugated peptide, 4 hours
Protocol: Negative controls include DMSO and an unmodified/unstructured peptide of the BIM BH3 domain. […] Microscopy was performed 4 hours after dosing cells with the corresponding FITC-conjugated peptides.
Briefly, wild-type MEFs were treated with 0.5 μM SAH-SOS peptide or the equivalent amount of control peptides (e.g. BIM BH3, BIM SAHBA) for 4 hours in serum-free DMEM, and then stained with Hoechst dye and CellMask Orange (Invitrogen) for 10 min. The media was aspirated, and cells fixed with 4% paraformaldehyde for 10 min, washed 3× with PBS and imaged using ImageXpress Microscopy (high-throughput epifluorescence microscope, Molecular Devices). The data were analyzed and quantified with MetaXpress software.

## CC[C@H](C)[C@H](NC(=O)[C@]1(C)CCCC=CCCC[C@](C)(NC(=O)CNC(=O)[C@H](Cc2ccccc2)NC(=O)[C@H](Cc2ccccc2)NC(=O)[C@H](CCCNC(=N)N)NC(=O)[C@H](CCCNC(=N)N)NC(=O)CCNC(=S)Nc2ccc3c(c2)C(=O)OC32c3ccc(O)cc3Oc3cc(O)ccc32)C(=O)N[C@@H](Cc2ccc(O)cc2)C(=O)N[C@@H](CC(C)C)C(=O)N[C@@H]([C@@H](C)O)C(=O)N1)C(=O)N[C@@H](CC(C)C)C(=O)N[C@@H](CCCCN)C(=O)N[C@H](C(=O)N[C@@H](CCC(=O)O)C(=O)N[C@@H](CCC(=O)O)C(=O)NCC(=O)N[C@@H](CC(N)=O)C(N)=O)[C@@H](C)O [SAH-SOSB2, RRFFGXYLTXILKTEEGN]
Panc 10.05 cells
  cellular uptake: dose-dependent cellular uptake was observed
KRAS wild type [1]
  binding to KRAS, in words: does not bind KRAS
KRAS G12D
  inhibition of mant-GTP loading: had no effect
KRAS and SOS1 protein
  disruption of KRAS-SOS1 association: displayed no such activity
KRAS wild type [2]
  inhibition of mant-GTP loading: had no effect

## CC[C@H](C)[C@H](NC(=O)CNC(=O)[C@H](Cc1ccccc1)NC(=O)[C@H](Cc1ccccc1)NC(=O)[C@H](CCCNC(=N)N)NC(=O)[C@H](CCCNC(=N)N)NC(=O)CCNC(=S)Nc1ccc2c(c1)C(=O)OC21c2ccc(O)cc2Oc2cc(O)ccc21)C(=O)N[C@@]1(C)CCCC=CCCC[C@@](C)(C(=O)N[C@@H](CC(C)C)C(=O)N[C@@H](CCCCN)C(=O)N[C@H](C(=O)N[C@@H](CCC(=O)O)C(=O)N[C@@H](CCC(=O)O)C(=O)NCC(=O)N[C@@H](CC(N)=O)C(N)=O)[C@@H](C)O)NC(=O)[C@H](CC(N)=O)NC(=O)[C@H]([C@@H](C)O)NC(=O)[C@H](CC(C)C)NC1=O [SAH-SOSC2, RRFFGIXLTNXLKTEEGN]
Panc 10.05 cells
  cellular uptake: dose-dependent cellular uptake was observed
Wildtype KRAS
  GTP exchange activity of KRAS: reduce the GTP exchange activity of KRAS in vitro in a dose-responsive manner
[3]
  myc-driven luciferase expression: specifically inhibited myc-driven luciferase expression
KRAS wild type [1]
  binding to KRAS, in words: among the highest affinity
[4]
  cell viability: impairs the viability
[5]
  phosphorylation of downstream KRAS targets: dose-responsively inhibited phosphorylation
KRAS G12D
  inhibition of mant-GTP loading: dose-responsively inhibited mant-GTP loading
[6]
  cell viability: impairs the viability
[7]
  cell viability: impairs the viability
KRAS and SOS1 protein
  disruption of KRAS-SOS1 association: disrupted the association between KRAS and SOS1 protein
[8]
  anti-tumor activity in cancer cell lines: demonstrated anti-tumor activity
KRAS wild type [2]
  inhibition of mant-GTP loading: dose-responsively inhibited mant-GTP loading
[9]
  cellular uptake: cellular uptake

## RRFFGIXLTNXLRTEK(G-GMONO)GN (RRFFGI[S5]LTN[S5]LRTEK(G‑GMONO)GN; staple 7-11) [SAH-SOS(G-Gmono), SAH-SOSC2 derivative with glycine-conjugated G-monomer on a lysine side chain]
KRAS G12D
  inhibition of nucleotide (mant-GTP) loading of KRAS: effectively inhibited nucleotide loading

## RRFFGIXLTNXLRTEKGN (RRFFGI[S5]LTN[S5]LRTEK(guanine PNA monomer)GN; staple 7-11) [SAH-SOS(Gmono), SAH-SOSC2 derivative with guanine peptide-nucleic acid monomer (Gmono) on a lysine side chain]
KRAS G12D
  inhibition of nucleotide (mant-GTP) loading of KRAS: effectively inhibited nucleotide loading
